Patent publication US20130011845A1, “MICRORNA REGULATING THE INSULIN SIGNALING PATHWAY, AND METHOD FOR SCREENING MATERIAL FOR CONTROLLING THE ACTION OF A TARGET THEREOF” (SNU R & DB Foundation, priority 2009, published 2013)

Assays:
Type in all cases: cell-based
CG12333 3′UTR = assay: dual-luciferase 3′UTR reporter assay, pAC-CG12333; details: luciferase reporter with CG12333 3′UTR, drosophila S2 cell lines; average of at least two independent experiments
Method: (§1) In order to determine whether the target genes identified in Example 7 are in actuality targets of miR-8 and miR-200 family miRNAs, the inventors performed cloning. In other words, they inserted a luciferase gene into downstream of each target gene's 3′UTR containing the miRNA target sites. Specifically, in order to obtain cDNAs of respective target genes, from drosophila S2 cell lines or human Hela cell lines, total RNA was extracted by using RNeasy mini kit (QIAGEN, US). 1 μg of total RNA and 1 μl of Oligo-dT (Invitrogen, US) were charged with up to 50 μl of distilled water, and placed into SuperScript First-Strand Synthesis System (Invitrogen, US), followed by RT-PCR reaction. Through the reaction at 65° C. for 6 min, at 4° C. for 5 min, at 42° C. for 60 min, at 95° C. for 5 min, and at 4° C. for 5 min, cDNA was synthesized. […]
(§2) Reporter plasmids and renilla luciferase expression vectors (Promega, US), as noted in Table 4, and miRNAs of miR-200 family of miR-141, miR-200a (hsa-miR-200a, SEQ ID: 87: 5′-[…]-3′), miR-200b, miR-200c (has-miR-200c, SEQ ID: 88: 5′-[…]-3′) and miR-429, and miR-8 (dme-miR-8, SEQ ID: 89: 5′-[…]-3′) were bought from Samchonri and cotransfected into drosophila S2 cell lines or human Hela cell lines. Then, the activities of luciferase were measured through dual-luciferase assay (Promega, US) by a luminometer (Biorad). […]

dbo 3′UTR = assay: dual-luciferase 3′UTR reporter assay, pAC-dbo; details: luciferase reporter with dbo 3′UTR, drosophila S2 cell lines; average of at least two independent experiments
Method: as §1, §2

Lap1 3′UTR = assay: dual-luciferase 3′UTR reporter assay, pAC-Lap1; details: luciferase reporter with Lap1 3′UTR, drosophila S2 cell lines; average of at least two independent experiments
Method: as §1, §2

CG8445 3′UTR = assay: dual-luciferase 3′UTR reporter assay, pAC-CG8445; details: luciferase reporter with CG8445 3′UTR, drosophila S2 cell lines; average of at least two independent experiments
Method: as §1, §2

ush 3′UTR = assay: dual-luciferase 3′UTR reporter assay, pAC-ush; details: luciferase reporter with ush 3′UTR, drosophila S2 cell lines; average of at least two independent experiments
Method: as §1, §2

Ced-12 3′UTR = assay: dual-luciferase 3′UTR reporter assay, pAC-Ced-12; details: luciferase reporter with Ced-12 3′UTR, drosophila S2 cell lines; average of at least two independent experiments
Method: as §1, §2

ebf 3′UTR = assay: dual-luciferase 3′UTR reporter assay, ebf; details: luciferase reporter with ebf 3′UTR, drosophila S2 cell lines; average of at least two independent experiments
Method: as §1, §2

Lar 3′UTR = assay: dual-luciferase 3′UTR reporter assay, pAC-Lar; details: luciferase reporter with Lar 3′UTR, drosophila S2 cell lines; average of at least two independent experiments
Method: as §1, §2

Substance: 5′-UAAUACUGUCAGGUAAAGAUGUC-3′ (listed as RNA, chemistry not given here) [miR-8]
- Repression fold, CG12333 (CG12333 3′UTR): 0.59 fold
- Repression fold, dbo (dbo 3′UTR): 0.54 fold
- Repression fold, Lap1 (Lap1 3′UTR): 0.46 fold
- Repression fold, CG8445 (CG8445 3′UTR): 0.43 fold
- Repression fold, ush (ush 3′UTR): 0.71 fold
- Repression fold, Ced-12 (Ced-12 3′UTR): 0.51 fold
- Repression fold, ebf (ebf 3′UTR): 0.75 fold
- Repression fold, Lar (Lar 3′UTR): 0.42 fold
